Experiment [1] concerns rats with chronic heart failure induced by coronary artery ligation. Description: Ex vivo left ventricular pressure-volume relationship (LVPVR) tracings (Example 2). The format is in vivo. As to conditions: 2 mg/kg/day oral, 8 weeks, untreated CHF 1.11. The procedure: Chronic heart failure was induced by coronary artery ligation in rats, and was confirmed by echocardiography, three weeks post-surgery. Three groups of rats were studied: (1) Chronic heart failure without clenbuterol (n=7); (2) chronic heart failure+clenbuterol (2 mg/kg/day; n=5); and (3) rats after sham operation (n=11). After 8 weeks of oral clenbuterol therapy, echocardiography and direct hemodynamic monitoring were performed. Rat hearts were then harvested for ex vivo left ventricular pressure-volume relationship (LVPVR) tracings, histologic (trichrome) sections, and molecular assays. Western analysis for myocardial calcium-handling proteins (ryanodine receptors (RyR), SERCA2a, phospholamban, and calcium-sodium exchanger) was assessed by densitometry.

Experiment [2] concerns sarcoplasmic reticulum calcium-ATPase (SERCA2a). The experiment is described as follows: Western blot of calcium-handling protein expression: SERCA2a (Example 5). In kind it is in vivo, Sprague-Dawley rats. As to conditions: FIG. 6; not different from Sham. Here is the method: Five rat hearts from each group (HF, Clen, Meto, Clen+Meto, and Sham) were randomly selected and used for analysis of calcium-handling protein expression levels. Lysates of LV tissue were obtained with the use of a homogenizer (Brinkmann Instruments, Westbury, N.Y.). Approximately 150 mg of heart tissue was placed in a seven-fold volume of lysis buffer (20 mM/L Na-HEPES, 4 mM/L EGTA, 1 mM/L DTT, pH 7.4) in the presence of proteinase inhibitors (0.1 mM/L leupeptin and 0.3 mM/L PMSF). The protein concentration was determined using a protein assay kit (Bio-Rad Laboratories, Hercules, Calif.). Samples (50 μg) were denatured at 95° C. and size-fractionated using SDS-polyacrylamide gel electrophoresis (PAGE) under reducing conditions. SDS-PAGE was performed using 7.5% separating and 5% stacking gels for SERCA2a and 5% separating and 4% stacking gels for RyR. Electrophoresis was performed in a Miniprotean II cell (Bio-Rad Laboratories, Hercules, Calif.) followed by transfer of proteins (using 34 V overnight at 4° C.) onto nitrocellulose in a mini trans-blot transfer cell (Bio-Rad Laboratories, Hercules, Calif.) filled with transfer buffer (25 m/L Tris-HCl, pH 8.3, 192 mM/L glycine and 20% methanol). […]
Optical densities of protein level signals were quantified with the use of a laser scanning densitometer (Molecular Dynamics, Palo Alto, Calif.) in a blinded manner. […]

Each structure is given as a SMILES string.

`CC(C)(C)NCC(O)c1cc(Cl)c(N)c(Cl)c1` (centres unmarked) [Clen, clenbuterol]: in experiment [1], the “LVPVR volume for a given LV pressure=15 mmHg” value was 1.02 mL. Also, the “SERCA2a protein expression level relative to tubulin, versus HF group” value in experiment [2] is on record as “significantly improved”.

These data come from patent US20090088482A1, “Compositions and Methods For Treating Heart Failure” (The Trustees Of Columbia University In The City New York, priority 2003, published 2009).
